{"source": "patent US20160213849A1", "about": "“CONDITIONAL REQUIRED PRIMING” (SANOFI-AVENTIS DEUTSCHLAND GMBH, priority 2013, published 2016)", "assay_type_in_all_cases": "cell-based", "key": {"Aspergillus niger": {"test_system": "Aspergillus niger", "assay": "preservative efficacy test of inoculated m-cresol test solutions", "conditions": "1.8 mg/ml m-cresol", "method": "(§1) In a first experiment, the minimum m-cresol concentration necessary to ensure microbiological integrity was determined.\n(§2) Test solutions with m-cresol concentrations of between 2.7 mg/ml down to 1.5 mg/ml were inoculated with an inoculum of different bacteria and fungi/yeast and stored for 28 days. During the test, the bacteria and fungi/yeast population of the test solutions were repeatedly analyzed."}, "Candida albicans": {"test_system": "Candida albicans", "assay": "preservative efficacy test of inoculated m-cresol test solutions", "conditions": "1.8 mg/ml m-cresol", "method": "as §1, §2"}, "Escherichia coli": {"test_system": "Escherichia coli", "assay": "preservative efficacy test of inoculated m-cresol test solutions", "conditions": "1.8 mg/ml m-cresol", "method": "as §1, §2"}, "Staphilococcus aureus": {"test_system": "Staphilococcus aureus", "assay": "preservative efficacy test of inoculated m-cresol test solutions", "conditions": "1.8 mg/ml m-cresol", "method": "as §1, §2"}, "Pseudomonas aeruginosa": {"test_system": "Pseudomonas aeruginosa", "assay": "preservative efficacy test of inoculated m-cresol test solutions", "set-up": "unit not given beside the values", "conditions": "1.8 mg/ml m-cresol", "method": "as §1, §2"}, "bacteria and fungi/yeast": {"test_system": "bacteria and fungi/yeast", "assay": "comparison of test solution results to Ph. Eur. and USP criteria", "method": "The Ph. Eur. and USP criteria are given in table 1, wherein the numbers designate the required order of magnitude in CFU (colony forming unit) decrease as a function of time since the time of contamination (T0).\nas §2\nThe analysis presented in table 2 for the 1.8 mg/ml m-cresol test solution was also performed for the test solutions with different m-cresol contents. The results were then compared to the Ph.Eur. and USP criteria to determine, which m-cresol contents are sufficient to fulfil these criteria."}}, "note": "“And” between values parts separate entries of the source, which are not always exact repeats. Equal values may be shown once."}
{"compound": "Cc1cccc(O)c1", "note": "[m-cresol]", "values": [{"measurement": "Aspergillus niger content", "setting": "Aspergillus niger; 7 d", "result": 15}, {"measurement": "Aspergillus niger content", "setting": "Aspergillus niger; 14 d", "result": "<10"}, {"measurement": "Aspergillus niger content", "setting": "Aspergillus niger; 28 d", "result": "<10"}, {"measurement": "Aspergillus niger content", "setting": "Aspergillus niger; Start (T0)", "result": 250000}, {"measurement": "Candida albicans content", "setting": "Candida albicans; 7 d", "result": 100}, {"measurement": "Candida albicans content", "setting": "Candida albicans; 14 d", "result": 30}, {"measurement": "Candida albicans content", "setting": "Candida albicans; 28 d", "result": "<10"}, {"measurement": "Candida albicans content", "setting": "Candida albicans; Start (T0)", "result": 400000}, {"measurement": "Escherichia coli content", "setting": "Escherichia coli; 6 h", "result": 55}, {"measurement": "Escherichia coli content", "setting": "Escherichia coli; 24 h", "result": "<10"}, {"measurement": "Escherichia coli content", "setting": "Escherichia coli; 7 d", "result": "<10"}, {"measurement": "Escherichia coli content", "setting": "Escherichia coli; 14 d", "result": "<10"}, {"measurement": "Escherichia coli content", "setting": "Escherichia coli; 28 d", "result": "<10"}, {"measurement": "Escherichia coli content", "setting": "Escherichia coli; Start (T0)", "result": 190000}, {"measurement": "Staphilococcus aureus content", "setting": "Staphilococcus aureus; 6 h", "result": 2200}, {"measurement": "Staphilococcus aureus content", "setting": "Staphilococcus aureus; 24 h", "result": "<10"}, {"measurement": "Staphilococcus aureus content", "setting": "Staphilococcus aureus; 7 d", "result": "<10"}, {"measurement": "Staphilococcus aureus content", "setting": "Staphilococcus aureus; 14 d", "result": "<10"}, {"measurement": "Staphilococcus aureus content", "setting": "Staphilococcus aureus; 28 d", "result": "<10"}, {"measurement": "Staphilococcus aureus content", "setting": "Staphilococcus aureus; Start (T0)", "result": 170000}, {"measurement": "Pseudomonas aeruginosa content", "setting": "Pseudomonas aeruginosa; 6 h", "result": "<10"}, {"measurement": "Pseudomonas aeruginosa content", "setting": "Pseudomonas aeruginosa; 24 h", "result": "<10"}, {"measurement": "Pseudomonas aeruginosa content", "setting": "Pseudomonas aeruginosa; 7 d", "result": "<10"}, {"measurement": "Pseudomonas aeruginosa content", "setting": "Pseudomonas aeruginosa; 14 d", "result": "<10"}, {"measurement": "Pseudomonas aeruginosa content", "setting": "Pseudomonas aeruginosa; 28 d", "result": "<10"}, {"measurement": "Pseudomonas aeruginosa content", "setting": "Pseudomonas aeruginosa; Start (T0)", "result": 23000}, {"measurement": "m-cresol content still enough to fulfil both the Ph.Eur. criterion A and the USP criteria", "setting": "bacteria and fungi/yeast; conclusion of first experiment", "result": "2.1 mg/mL and 1.8 mg/mL"}, {"measurement": "m-cresol content down to which the USP criteria are fulfilled", "setting": "bacteria and fungi/yeast; lowest content tested 1.5 mg/ml", "result": 1.5, "unit": "mg/mL"}]}
